Experimental findings from a melting point compilation (Tetko et al.; mined from patent text by program, amines drawn as free bases though some values may be those of a salt) are described below.

As a reminder, the melting point is the temperature, or range, at which the solid turns liquid.

Some results are limits rather than exact numbers.

As for `CCOCCn1c(C)nc2c(N)ncc(C)c21`, the melting point fell in the range of 129 to 130 °C. The same measure for `Cc1nc2c3c(ccn2c1C)C(O)C(O)C(c1ccsc1)N3` (stereo not given): 134 to 138 °C. `CC(=O)Nc1ccc(OCC(=O)O)c(C(=O)NCc2ccc(Br)cc2F)c1` displayed a melting point of 235 °C. The same measure for `COc1cccc(C(=O)NCc2cccc3c2CN(C2CCC(=O)NC2=O)C3=O)c1` (stereo not given): 244 to 246 °C; for `C#CCn1ccc(CO)c1C#N`: 65 °C; for `CCOc1nn(CCOc2ccccc2CC(=O)O)cc1C(=O)NCc1ccc(Cl)cc1Cl`: 167 to 169 °C.

In the case of `CC(C)(C)NC(CO)c1cc(Cl)c(N)c(C(F)(F)F)c1` (stereo not given), the melting point lay within 85 to 90 °C. The same measure for `O=C1Nc2cccc(I)c2C(=O)N2CC[C@@H]12`: 186 to 187 °C; for `CCOCc1nc2c(NC(C)=O)nc3ccccc3c2n1CC(C)(C)NS(C)(=O)=O`: 75 to 76 °C.

The compound `O=C(c1ccc2nonc2c1)N1C2CCCC1COC2` registered a melting point of 128 to 130 °C.

Consider `CCOC(=O)c1c(C(F)(F)F)nc(C(F)(F)Cl)c(C(=O)OC)c1OCC`, for which the melting point was in the range of 37.5 to 39.5 °C. Compound `O=C1CC2CCc3ccc(Cl)cc3C2=NN1c1ccccc1` (stereo not given) returned a melting point of 120 to 122 °C.

`CCC(Br)C(=O)Nc1c(C)cccc1C` (stereo not given): the melting point is 180 to 190 °C. The same measure for `O=C(Nc1ccccc1C(=O)O)OCc1ccccn1`: 172 to 175 °C; for `CC(C)(C)C(NC(=O)CCc1ccccc1)Nc1c(Nc2cccnc2Cl)c(=O)c1=O` (stereo not given): 160 to 161 °C. The same measure for `CCCC(CCC)n1nnc2c(Cl)nc(C)nc21`: 92 to 93 °C. As for `COc1ccc2sc3cc(-c4nnn[nH]4)ccc3c(=O)c2c1`, the melting point is over 350 °C. The same measure for `CCCOc1ccc([N+](=O)[O-])nc1C`: 54 to 56 °C; for `CCOC(=O)c1ccc(OCc2ccccc2)c(OCc2ccccc2)c1`: 68 to 69 °C. For `O=C(O)Cn1c(Cc2ccccc2)ccc1-c1ccccc1`, the melting point fell in the range of 137 to 139 °C. The same measure for `C[C@@H](n1ccn(-c2ccc(OCC(F)(F)C(F)F)cc2)c1=O)[C@](O)(CO)c1ccccc1F`: 166 to 167 °C. Turning to `CCO[C@@H](C)c1nnc([C@H](C)OCC)n1N[C@H](CC)C(OC)OC`, the melting point was 88 °C. The same measure for `CN(C)CCNc1ccc(Cl)nn1`: 86 to 92 °C.

For the compound `CCC(C)(C)c1ccc(OCC(=O)Nc2ccc(Nc3cccc(O)c3)cc2)c(C(C)(C)CC)c1`, the melting point fell in the range of 150 to 152 °C. The same measure for `COc1ccc(OC)c2c1CCC(C#N)C2C#N` (stereo not given): 126 to 127 °C; for `N#Cc1ccc(C=C2CCCC2)s1`: 98 to 100 °C. The same measure for `CCN1CCN(c2nc(-c3ccc(OCCO)cc3)cc3ccsc23)CC1`: 135 to 136 °C. The same measure for `O=C(NCc1ccccn1)c1ccnc(N2CCN(CC3CC3)C2=O)c1`: 122 to 123 °C; for `O=C(Cc1ccccc1N1CCCC1)N1C[C@@H]2SCCC(c3ccccc3)(c3ccccc3)[C@@H]2C1` (racemic): 166 °C; for `C[C@H]1CNCC[C@@]12OC(=O)c1ccccc12` (racemic): 131 °C. `O=C(NCc1cccnc1)c1cnc(N2CCN(CC3CC3)C2=O)s1` gave a melting point of 190 to 192 °C. Take `CCc1cc(Cl)c(N)c(Cl)c1`: the melting point was in the range of 47 to 48 °C. The same measure for `Cc1cc(Nc2ccccc2C(=O)O)n(-c2ccccn2)n1`: 190 to 193 °C.

Compound `O=C1c2cc(O)ccc2OC12CC2` registered a melting point of 180 to 185 °C. The same measure for `COC(=O)C(=NO)c1ccccc1COc1ccccc1C`: 115 °C; for `O=C1CCc2c(ccc3ccc(O)cc23)O1`: 194 to 202 °C. As to `Cc1cnc(NN)nc1N`, the melting point was 174 to 175 °C. The same measure for `COc1csc2ccc(C(=O)O)c(Cl)c12`: 185 to 192 °C; for `CCC1=NC2(O)c3cc(-c4ccc(C(F)(F)F)cc4)ccc3CC2S1` (stereo not given): 145 °C. The same measure for `N=C(N)c1noc2cc([N+](=O)[O-])ccc12`: 182 to 185 °C; for `Nc1ccc2c(c1)S(=O)(=O)N(CCCCN1CCN(c3ncccn3)CC1)C2=O`: 150 to 151 °C; for `Clc1cccc(CNc2ncnc3nc[nH]c23)c1`: 252 °C. The same measure for `Cc1ccc2c([N+](=O)[O-])c(Cl)ccc2n1`: 123 to 124 °C; for `CN(SC(Cl)(Cl)Cl)C(=O)OC(C(Oc1ccc(Cl)cc1)n1cncn1)C(C)(C)C` (stereo not given): 110 to 112 °C. In turn, `CCCc1nc(C(N)=O)c2n1-c1ccc(Cl)cc1C(c1ccccc1Cl)=NC2` yielded a melting point of 298 to 300 °C. The same measure for `COC(=O)c1ccc2c(c1)c1cc(-c3ccc(C=O)cc3)c(=O)n(C)c1n2C`: 230 °C; for `COCC(=O)Nc1c(C(=O)CC(=O)Nc2nccs2)cccc1C(F)(F)F`: 152 °C. The same measure for `CCn1c(=Nc2ccccc2)sc2ncccc2c1=O`: 117 to 118 °C; for `CCC1CC(=O)N(Cc2ccc(C(=O)NC3CCCC3)cc2)N=C1c1ccc(OC)c(OC)c1` (stereo not given): 154 °C; for `CCN(CC)Cc1cnc(-c2ncn3c2CN(C)C(=O)c2cc(F)ccc2-3)o1`: 182 to 184 °C.

Compound `O=C(O)c1ccc(Cc2ccccc2)cn1` showed a melting point of 145 to 147 °C. The same measure for `CC(C)(C)[Si](C)(C)OCCn1ccc(N)n1`: 54 to 55 °C; for `CCC(O)(CC)c1cccc2[nH]c(=O)n(C)c12`: 199 to 201 °C. The same measure for `NCCc1cc(-c2ccccc2)n(-c2ccc(S(N)(=O)=O)cc2)n1`: 189 to 192 °C; for `CC(C)(C)c1cc(/C=C/C(=O)COc2ccccc2)cc(C(C)(C)C)c1O`: 100 to 102 °C. The same measure for `O=C(C/C=C/c1ccccc1)Nc1cccc(-n2ccnc2)c1`: 130 to 133 °C. As for `COc1cccc2c1CC1(CCCCC1)C2=O`, the melting point fell in the range of 94 to 96 °C. The same measure for `Oc1cc(F)cc(C2(O)CCOCC2)c1`: 158 to 160 °C. The same measure for `COc1cccc(Nc2ccnc(Nc3ccc(OC)c(OC)c3)n2)c1`: 135 to 138 °C; for `CC(=O)NCc1ccc(CN2CCN(c3ccc(N)cc3)CC2)cc1`: 198 to 200 °C; for `COC(=O)c1ccc(CC(C)(C)NCC(O)c2cc3ccccc3o2)cc1` (stereo not given): 127 to 129 °C. As to `C=CC(=O)OC(C#N)Cc1ccc(OC)c(OC)c1` (stereo not given), the melting point lay in the range of 154 to 156 °C. The same measure for `O=c1[nH]cc(F)c(=S)[nH]1`: 254 to 255 °C. The same measure for `COc1ccc2[nH]c(SCc3ncnc(N4CCCCC4)c3C)nc2c1`: 94 to 96 °C; for `O=[N+]([O-])c1cc(F)c(N2CCCCC2)cc1Cl`: 70 °C. The same measure for `CCCCCCCCCCCCCc1nnc(N)o1`: 147 to 150 °C. `CC(C)c1cc(Oc2ccccc2)cc(C2CCCCC2)c1N` displayed a melting point of 108 to 110 °C. The same measure for `CCOC(=O)COc1ccc(NC(=O)OC(C)(C)C)cc1OC`: 81 to 83 °C. `NC(=O)c1n[nH]c2ccc([N+](=O)[O-])cc12` yielded a melting point of 221 to 226 °C. The same measure for `Cc1cc(Br)ccc1NC(=O)c1cccc(S(=O)(=O)N2CCCCCC2)c1`: 177 to 179 °C; for `Cc1cc(O)c(SCc2ccc(Cl)cc2Cl)c(=O)o1`: 163 to 164 °C. Take `Cn1c(-c2ccccc2)nc2nc(-c3ccc(Cl)cc3)nn2c1=S`: the melting point lay in the range of 267 to 270 °C. The same measure for `C=CCSc1ccc(Oc2ccc(C)cc2)nn1`: 115 to 117 °C. Consider `CC(C)c1cc(C(C)C)c2c(c1)C1(N)C(=O)c3ccccc3C1(O)O2` (stereo not given), for which the melting point is 199 to 200 °C. The same measure for `CCCC1NS(=O)(=O)N(CCN2CC=C(c3c[nH]c4cc(F)ccc34)CC2)c2ccccc21` (stereo not given): 196 to 198 °C. The compound `COc1ncc(Br)cc1/C=C/C(=O)c1ccc(Cl)cc1` gave a melting point of 168 to 172 °C. The same measure for `COCCCn1c2cc(Cl)ccc2n2c(C)nnc12`: 136 °C. The same measure for `CCc1cnc(N2CCN(C(=O)c3ccc(Nc4ncnc5ccccc45)cc3)CC2)nc1`: 248 to 249 °C; for `CC(C)n1nc(-c2sc(NC(=O)NCc3ccccc3)nc2-c2ccccc2)ccc1=O`: 200 to 201 °C.

As to `COc1ccc(C2CCc3ccccc3C2=O)cc1` (stereo not given), the melting point is 107 to 108 °C.

`CCCCCN1C(=O)C2CC(c3ccc(N)cc3)(C2)C1=O`: the melting point was 92 to 94 °C.

`COc1ccc(C2C3=C(COC3=O)Nc3ccc4cc(C)[nH]c4c32)cc1O` (stereo not given) showed a melting point of 293 to 294 °C. The same measure for `CC(C)(C)OC(=O)COC(=O)CCc1c(OCC(=O)OC(C)(C)C)ccc2ccc(OCC(=O)OC(C)(C)C)cc12`: 118 °C; for `CC(C)COc1ccccc1C(=N)N`: 49 to 51 °C; for `COc1cccc(-c2nc3c([nH]2)C(C)(C)CS(=O)(=O)CC3(C)C)c1`: 217 to 219 °C. In turn, `CC(C)(C)c1cc(-c2nn(CC3CC3)c3ncccc23)cc(C(C)(C)C)c1O` registered a melting point of 135 to 137 °C. The same measure for `CC(=C(c1ccc(F)cc1)c1ccc(F)cc1)c1nnnn1C`: 146 to 147 °C; for `O=C(CC1CCN(CCc2ccccc2)CC1)c1ccc(F)cc1`: 73 to 74 °C; for `Cc1oc(-c2ccccc2)nc1COc1ccc(C(=O)O)cc1`: 190 to 191 °C.

For the compound `CS(=O)c1cnc2ccsc2c1O` (stereo not given), the melting point is 271 to 273 °C. The same measure for `CC(C)CC1(C(CCSc2cccs2)C(=O)NO)CCN(CCc2ccccc2)C1=O` (stereo not given): 109 to 110 °C; for `COC(=O)CCCc1nnc(-c2nccs2)c2cc(OC)ccc12`: 136 to 137 °C. The same measure for `CCc1noc(-c2cn(-c3ccc(Oc4ccccc4)cc3)cn2)n1`: 172 to 173 °C. `O=C1CC(c2cccc(-c3nc(CO)cs3)c2)=Nc2ccc(-n3cccc3)cc2N1` displayed a melting point of 238 to 240 °C. For the compound `COC(=O)Cc1ccccc1CC(=O)NCCc1ccc(OC)c(OC)c1`, the melting point lay in the range of 88 to 91 °C.
